From patent US7135462B2, “Hepatitis C virus inhibitors” (priority 2003, dated 2006)
Like-named read-outs stand apart in the source and are kept apart here.

Assays:
[1] = target: T1, HCV NS3/4A protease complex (BMS strain) (UniProt P27958, C1454S/C1711G, species not given); experiment: Recombinant HCV NS3/4A protease complex FRET peptide assay; format: biochemical, Hepatitis C virus (HCV), genotype 1a; conditions: NS3/4A BMS strain, activity range class
T1 construct: for H77 and J4L6S; fused on or other part: Three-lysine solubilising tail at the C-terminus of NS4A
Source text: Recombinant HCV NS3/4A Protease Complex FRET Peptide Assay
Serum from an HCV-infected patient was obtained from Dr. T. Wright, San Francisco Hospital. An engineered full-length cDNA (compliment deoxyribonucleic acid) template of the HCV genome (BMS strain) was constructed from DNA fragments obtained by reverse transcription-PCR (RT-PCR) of serum RNA (ribonucleic acid) and using primers selected on the basis of homology between other genotype 1a strains.
The H77 and J4L6S strains were used for production of recombinant NS3/4A protease complexes. […] Briefly, a three-lysine solubilizing tail was added at the 3′-end of the NS4A coding region. […] Briefly, the NS3/4A protease complex expression was induced with 0.5 millimolar (mM) Isopropyl β-D-1-thiogalactopyranoside (IPTG) for 22 hours (h) at 20° C. […] The cells were resuspended in lysis buffer (10 mL/g) consisting of 25 mM N-(2-Hydroxyethyl)piperazine-N′-(2-Ethane Sulfonic acid) (HEPES), pH 7.5, 20% glycerol, 500 mM Sodium Chloride (NaCl), 0.5% Triton X-100, 1 microgram/milliliter (“μg/mL”) lysozyme, 5 mM Magnesium Chloride (MgCl2), 1 μg/ml DnaseI, 5 mM β-Mercaptoethanol (βME), Protease inhibitor—Ethylenediamine Tetraacetic acid (EDTA) free (Roche), homogenized and incubated for 20 minutes (min) at 4° C. The homogenate was sonicated and clarified by ultra-centrifugation at 235000 g for 1 h at 4° C. Imidazole was added to the supernatant to a final concentration of 15 mM and the pH adjusted to 8.0. The crude protein extract was loaded on a Nickel—Nitrilotriacetic acid (Ni-NTA) column pre-equilibrated with buffer B (25 mM HEPES, pH 8.0, 20% glycerol, 500 mM NaCl, 0.5% Triton X-100, 15 mM imidazole, 5 mM βME). The sample was loaded at a flow rate of 1 mL/min. The column was washed with 15 column volumes of buffer C (same as buffer B except with 0.2% Triton X-100). The protein was eluted with 5 column volumes of buffer D (same as buffer C except with 200 mM Imidazole).
NS3/4A protease complex-containing fractions were pooled and loaded on a desalting column Superdex-S200 pre-equilibrated with buffer D (25 mM HEPES, pH 7.5, 20% glycerol, 300 mM NaCl, 0.2% Triton X-100, 10 mM βME). Sample was loaded at a flow rate of 1 mL/min. NS3/4A protease complex-containing fractions were pooled and concentrated to approximately 0.5 mg/ml.
The enzyme was stored at −80° C., thawed on ice and diluted prior to use in assay buffer. […] The sequence of this peptide is loosely based on the NS4A/NS4B natural cleavage site for the HCV NS3 protease except there is an ester linkage rather than an amide bond at the cleavage site. The peptide substrate was incubated with one of the three recombinant NS3/4A protease complexes, in the absence or presence of a compound of the present invention, and the formation of fluorescent reaction product was followed in real time using a Cytofluor Series 4000.
The reagents were as follow: HEPES and Glycerol (Ultrapure) were obtained from GIBCO-BRL. Dimethyl Sulfoxide (DMSO) was obtained from Sigma. β-Mercaptoethanol was obtained from Bio Rad.
Assay buffer: 50 mM HEPES, pH 7.5; 0.15 M NaCl; 0.1% Triton; 15% Glycerol; 10 mM βME. Substrate: 2 μM final concentration (from a 2 mM stock solution in DMSO stored at −20° C.). HCV NS3/4A protease type 1a (1b), 2–3 nM final concentration (from a 5 μM stock solution in 25 mM HEPES, pH 7.5, 20% glycerol, 300 mM NaCl, 0.2% Triton-X100, 10 mM βME).
The assay was performed in a 96-well polystyrene black plate from Falcon.

[2] = test system: HCV replicon in Huh7 cells; experiment: microbe, parasite or virus in culture; format: cell-based, strain 1b; conditions: Hepatitis C virus, Huh-7, 96 h; Huh7 cells expressing HCV replicon, 4 days; activity range class
Source text: Generation of HCV Replicon
This system enabled us to evaluate the effects of our HCV Protease compounds on HCV RNA replication. Briefly, using the HCV strain 1b sequence described in the Lohmann paper (Assession number: AJ238799), an HCV cDNA was generated encoding the 5′ internal ribosome entry site (IRES), the neomycin resistance gene, the EMCV (encephalomyocarditis viurs)-IRES and the HCV nonstructural proteins, NS3-NS5B, and 3′ non-translated region (NTR). In vitro transcripts of the cDNA were transfected into the human hepatoma cell line, Huh7. […] Resulting cell lines were characterized for positive and negative strand RNA production and protein production over time.
Huh7 cells, constitutively expressing the HCV replicon, were grown in Dulbecco's Modified Eagle Media (DMEM) containing 10% Fetal calf serum (FCS) and 1 mg/ml G418 (Gibco-BRL). Cells were seeded the night before (1.5×10^4 cells/well) in 96-well tissue-culture sterile plates. Compound and no compound controls were prepared in DMEM containing 4% FCS, 1:100 Penicillin/Streptomysin, 1:100 L-glutamine and 5% DMSO in the dilution plate (0.5% DMSO final concentration in the assay). Compound/DMSO mixes were added to the cells and incubated for 4 days at 37° C. After 4 days, plates were rinsed thoroughly with Phosphate-Buffered Saline (PBS) (3 times 150 μl). The cells were lysed with 25 μl of a lysis assay reagent containing the FRET peptide (RET S1, as described for the in vitro enzyme assay). The lysis assay reagent was made from 5× cell Luciferase cell culture lysis reagent (Promega #E153A) diluted to 1× with distilled water, NaCl added to 150 mM final, the FRET peptide diluted to 10 μM final from a 2 mM stock in 100% DMSO. The plate was then placed into the Cytofluor 4000 instrument which had been set to 340 nm excitation/490 nm emission, automatic mode for 21 cycles and the plate read in a kinetic mode. EC50 determinations were carried out as described for the IC50 determinations. […]
The percentage inhibition was calculated using the formula below: […]
The values were graphed and analyzed using XLFit to obtain the EC50 value.

SMILES | IC50 ([1]; read-out: IC50) [µM] | EC50 [2] [µM] | IC50 [1] [µM]
C=C[C@@H]1C[C@]1(NC(=O)[C@@H]1C[C@@H](Oc2nccc3c(C(F)(F)F)cccc23)CN1C(=O)[C@@H](NC(=O)OC(C)(C)C)C(C)(C)C)C(=O)NS(=O)(=O)C1(CC)CC1 [Cpd 104] | < 0.1 | 0.1 to 1 | –
C=C[C@@H]1C[C@]1(NC(=O)[C@@H]1C[C@@H](Oc2nccc3c(Cl)c(OC)ccc23)CN1C(=O)[C@@H](NC(=O)OC(C)(C)C)C(C)(C)C)C(=O)NS(=O)(=O)C1(CC)CC1 [Cpd 105] | < 0.1 | < 0.1 | –
C=C[C@@H]1C[C@]1(NC(=O)[C@@H]1C[C@@H](Oc2nccc3c(OC)c(Cl)ccc23)CN1C(=O)[C@@H](NC(=O)OC(C)(C)C)C(C)(C)C)C(=O)NS(=O)(=O)C1(CC)CC1 [Cpd 106] | < 0.1 | < 0.1 | –
C=C[C@@H]1C[C@]1(NC(=O)[C@@H]1C[C@@H](Oc2ncc(Cl)c3cc(OC)ccc23)CN1C(=O)[C@@H](NC(=O)OC(C)(C)C)C(C)(C)C)C(=O)NS(=O)(=O)C1(CC)CC1 [Cpd 107] | < 0.1 | < 0.1 | –
C=C[C@@H]1C[C@]1(NC(=O)[C@@H]1C[C@@H](Oc2nccc3c4c(ccc23)OCCO4)CN1C(=O)[C@@H](NC(=O)OC(C)(C)C)C(C)(C)C)C(=O)NS(=O)(=O)C1(CC)CC1 [Cpd 108] | < 0.1 | < 0.1 | –
C=C[C@@H]1C[C@]1(NC(=O)[C@@H]1C[C@@H](Oc2nccc3cc(OC)c(F)cc23)CN1C(=O)[C@@H](NC(=O)OC(C)(C)C)C(C)(C)C)C(=O)NS(=O)(=O)C1(CC)CC1 [Cpd 109] | < 0.1 | < 0.1 | –
C=C[C@@H]1C[C@]1(NC(=O)[C@@H]1C[C@@H](Oc2cc3c(Cl)nccc3cc2OC)CN1C(=O)[C@@H](NC(=O)OC(C)(C)C)C(C)(C)C)C(=O)NS(=O)(=O)C1(CC)CC1 [Cpd 110] | < 0.1 | < 0.1 | –
C=C[C@@H]1C[C@]1(NC(=O)[C@@H]1C[C@@H](Oc2nccc3c(Cl)cccc23)CN1C(=O)[C@@H](NC(=O)OC(C)C)C(C)(C)C)C(=O)NS(=O)(=O)C1(CC)CC1 [Cpd 111] | < 0.1 | < 0.1 | –
C=C[C@@H]1C[C@]1(NC(=O)[C@@H]1C[C@@H](Oc2ncc(Cl)c3ccccc23)CN1C(=O)[C@@H](NC(=O)OC(C)C)C(C)(C)C)C(=O)NS(=O)(=O)C1(CC)CC1 [Cpd 112] | < 0.1 | 0.1 to 1 | –
C=C[C@@H]1C[C@]1(NC(=O)[C@@H]1C[C@@H](Oc2nc(Cl)cc3c(OC)cccc23)CN1C(=O)[C@@H](NC(=O)OC(C)(C)C)C(C)(C)C)C(=O)NS(=O)(=O)C1(CC)CC1 [Cpd 113] | – | 0.1 to 1 | < 0.1
